Test results from patent publication US11781191B2, “Compositions and method for detecting Mycobacterium riyadhense” (King Abdullah University of Science and Technology, priority 2019, dated 2023).

Test system: M. riyadhense isolates
Test: antimicrobial susceptibility testing of clinical isolates
Format: cell-based, Mycobacterium riyadhense
Conditions: eight clinical M. riyadhense isolates; share of isolates susceptible

Row | Compound | susceptibility of isolates
1 | NCC[C@H](O)C(=O)N[C@@H]1C[C@H](N)[C@@H](O[C@H]2O[C@H](CN)[C@@H](O)[C@H](O)[C@H]2O)[C@H](O)[C@H]1O[C@H]1O[C@H](CO)[C@@H](O)[C@H](N)[C@H]1O [amikacin] | 100%
2 | CC[C@H]1OC(=O)[C@H](C)[C@@H](O[C@H]2C[C@@](C)(OC)[C@@H](O)[C@H](C)O2)[C@H](C)[C@@H](O[C@@H]2O[C@H](C)C[C@H](N(C)C)[C@H]2O)[C@](C)(OC)C[C@@H](C)C(=O)[C@H](C)[C@@H](O)[C@]1(C)O [clarithromycin] | 100%
3 | CC[C@@H](CO)NCCN[C@@H](CC)CO [ethambutol] | 100%
4 | CC(=O)NC[C@H]1CN(c2ccc(N3CCOCC3)c(F)c2)C(=O)O1 [linezolid] | 100%
5 | COc1c(N2C[C@@H]3CCCN[C@@H]3C2)c(F)cc2c(=O)c(C(=O)O)cn(C3CC3)c12 [moxifloxacin] | 100%
6 | CO[C@H]1/C=C/O[C@@]2(C)Oc3c(C)c(O)c4c(c3C2=O)C2=NC3(CCN(CC(C)C)CC3)NC2=C(NC(=O)/C(C)=C\C=C\[C@H](C)[C@H](O)[C@@H](C)[C@@H](O)[C@@H](C)[C@H](OC(C)=O)[C@@H]1C)C4=O [rifabutin] | 100%
7 | CO[C@H]1/C=C/O[C@@]2(C)Oc3c(C)c(O)c4c(O)c(c(/C=N/N5CCN(C)CC5)c(O)c4c3C2=O)NC(=O)/C(C)=C\C=C\[C@H](C)[C@H](O)[C@@H](C)[C@@H](O)[C@@H](C)[C@H](OC(C)=O)[C@@H]1C [rifampin] | 100%
8 | trimethoprim-sulfamethoxazole | 100%
